Laboratory results from patent US20140309400A1, “Use of Cell-Permeable Peptide Inhibitors of the JNK Signal Transduction Pathway for the Treatment of Dry Eye Syndrome” (Xigen Inflammation Ltd., priority 2011, published 2014).
Non-standard residues stand in square brackets, D forms with d.

Legend:
Type in all cases: in vivo, female C57BL/6 mice
[1] = tested on: mouse model of scopolamine-induced dry eye; assay: Phenol red thread tear test (PRTT) in scopolamine-induced dry eye mice; conditions: for Mean PRTT AUC: TID, OU, 5 μL/eye, AUC Day 7-21
Method: The study consisted of a total of 5 groups of female C57BL/6 mice, comprising 4 groups of 12 mice each and an additional group of 4 mice. Bilateral short-term dry eye was induced by a combination of scopolamine hydrobromide (Sigma-Aldrich Corp., St. Louis, Mo.) injection (subcutaneous (SC), four times daily, 0.5 mg/dose, Days 0-21) and by exposing mice to the drying environment of constant air draft. Starting on Day 1, mice of Groups 1-4 were treated three times daily (TID) for 21 days with bilateral topical ocular (oculus uterque; OU) administration (5 μL/eye/dose) of vehicle (0.9% sterile saline; negative control article); or the peptide of SEQ ID NO: 11 (0.06%, 0.25% and 0.6%). Mice of Group 5 were maintained as un-induced, (no dry eye) untreated controls. During the in-life (treatment) period, clinical observations were recorded once daily; slit-lamp examination (SLE) with corneal fluorescein staining, tear break-up time test (TBUT), and phenol red thread test (PRTT) were performed three times per week. Necropsies were performed on Day 22; eyes, eye lids, conjunctivae, and lacrimal glands were collected from both eyes of each animal. Tissues from the right eyes (oculus dexter, OD) were fixed and then evaluated microscopically. Tissues from the left eyes (oculus sinister; OS) were flash-frozen in liquid nitrogen and stored frozen at −80° C. for possible subsequent analyses. Tear production was measured three times a week in both eyes using PRTT test strips (Zone-Quick; Menicon, Nagoya, Japan). Prior to the first treatment of the day, a thread was applied to the lateral canthus of the conjunctival fornix of each eye for 30 seconds under slit-lamp biomicroscopy. Tear migration up the tread (i.e., the length of the wetted cotton thread) was measured using a millimeter scale.

[2] = tested on: mouse model of scopolamine-induced dry eye; assay: Histopathology of the right eye (cornea) at necropsy Day 22 in scopolamine-induced dry eye mice
Method: The study consisted of a total of 5 groups of female C57BL/6 mice, comprising 4 groups of 12 mice each and an additional group of 4 mice. Bilateral short-term dry eye was induced by a combination of scopolamine hydrobromide (Sigma-Aldrich Corp., St. Louis, Mo.) injection (subcutaneous (SC), four times daily, 0.5 mg/dose, Days 0-21) and by exposing mice to the drying environment of constant air draft. Starting on Day 1, mice of Groups 1-4 were treated three times daily (TID) for 21 days with bilateral topical ocular (oculus uterque; OU) administration (5 μL/eye/dose) of vehicle (0.9% sterile saline; negative control article); or the peptide of SEQ ID NO: 11 (0.06%, 0.25% and 0.6%). […] During the in-life (treatment) period, clinical observations were recorded once daily; slit-lamp examination (SLE) with corneal fluorescein staining, tear break-up time test (TBUT), and phenol red thread test (PRTT) were performed three times per week. […] Tissues from the right eyes (oculus dexter, OD) were fixed and then evaluated microscopically. […] Stained slides were evaluated via light microscopy. […] These tissues were scored for injury based upon a 0-4 scale, with 0 being normal, 1 being minimal, 2 being mild, 3 being moderate, and 4 being severe. […] Conjunctivae were scored for erosion and inflammation as well as presence or absence of goblet cells.

[3] = tested on: mouse model of scopolamine-induced dry eye; assay: Tear break-up time (TBUT) test in scopolamine-induced dry eye mice; conditions: for Mean Calculated TBUT AUC: TID, OU, 5 μL/eye, Days 1 to 21
Method: The study consisted of a total of 5 groups of female C57BL/6 mice, comprising 4 groups of 12 mice each and an additional group of 4 mice. Bilateral short-term dry eye was induced by a combination of scopolamine hydrobromide (Sigma-Aldrich Corp., St. Louis, Mo.) injection (subcutaneous (SC), four times daily, 0.5 mg/dose, Days 0-21) and by exposing mice to the drying environment of constant air draft. Starting on Day 1, mice of Groups 1-4 were treated three times daily (TID) for 21 days with bilateral topical ocular (oculus uterque; OU) administration (5 μL/eye/dose) of vehicle (0.9% sterile saline; negative control article); or the peptide of SEQ ID NO: 11 (0.06%, 0.25% and 0.6%). Mice of Group 5 were maintained as un-induced, (no dry eye) untreated controls. During the in-life (treatment) period, clinical observations were recorded once daily; slit-lamp examination (SLE) with corneal fluorescein staining, tear break-up time test (TBUT), and phenol red thread test (PRTT) were performed three times per week. Necropsies were performed on Day 22; eyes, eye lids, conjunctivae, and lacrimal glands were collected from both eyes of each animal. Tissues from the right eyes (oculus dexter, OD) were fixed and then evaluated microscopically. Tissues from the left eyes (oculus sinister; OS) were flash-frozen in liquid nitrogen and stored frozen at −80° C. for possible subsequent analyses. The TBUT test was conducted three times weekly by measuring the time elapsed in seconds between a complete blink after application of fluorescein to the cornea and the appearance of the first random dry spot in the tear film. […] At least ninety seconds later, corneal epithelial damage was graded using a slit-lamp with a cobalt blue filter after another drop of 0.1% fluorescein was reapplied to the cornea; the cornea then was scored per the Draize ocular scale.

With “NH2-DQSRPVQPFLNLTTPRKPRPPRRRQRRKKRG-COOH (H-[dD][dQ][dS][dR][dP][dV][dQ][dP][dF][dL][dN][dL][dT][dT][dP][dR][dK][dP][dR][dP][dP][dR][dR][dR][dQ][dR][dR][dK][dK][dR]G-OH) [SEQ ID NO: 11]” the “Dose dependence of PRTT” value ([1]; 0.06%, 0.25% and 0.6% (Groups 2, 3 and 4)) was “generally dose-dependent increases in PRTT”, the “Mean PRTT AUC” value ([1]; Group 2: 0.06% (low dose)) was 39.96 and the “Mean PRTT AUC” value ([1]; Group 3: 0.25% (mid dose)) was 42.79. The “Mean PRTT AUC” value ([1]; Group 4: 0.6% (high dose)) was 43.17, the “Corneal changes (histopathology) in comparison to the other treatment groups” value ([2]; Group 2, low dose (0.06%)) was “slightly more severe” and the “Reducing/ameliorating the corneal changes (histopathology)” value ([2]; high dose (0.6%)) was “most effective”. The “Mean Calculated TBUT AUC” value ([3]; Group 2: 0.06% (low dose)) was 88.54, the “Mean Calculated TBUT AUC” value ([3]; Group 3: 0.25% (mid dose)) was 91.19 and the “Mean Calculated TBUT AUC” value ([3]; Group 4: 0.6% (high dose)) was 89.98. The “TBUT means compared with vehicle group” value ([3]; low, medium and high dose (Groups 2, 3 and 4)) was “above the vehicle group” and the “Dose dependence of TBUT” value ([3]; low, mid and high dose levels (Groups 2-4)) was “generally dose-dependent increases in TBUT”.
